Marks after values point to notes of the source that are not given here.
Legend:
S-180 sarcoma tumor = assay: S-180 sarcoma in white crossbred mice (Example 7); format: in vivo; settings: day 21
Method: After transplantation of the S-180 sarcoma tumor into white crossbred mice, the animals received the substance MOC.melphalan by intraabdominal administration in a dosage of 1 mg/kg in 0.3 ml of 10% DMSO solution on days 3, 5 and 9. The animals were sacrificed on day 21 of the investigation and underwent histological, morphological examination (table 11).
(§1) After transplantation of the S-180 sarcoma tumor into white crossbred mice, the animals received MOC.melphalan and melphalan by intraabdominal administration in a dosage of 5 mg/kg in 0.3 ml of 10% DMSO solution on days 3, 5, 7 and 9. The animals were sacrificed on day 21 of the investigation and underwent histological, morphological examination (table 12).
as §1, with “2, 4, 6, 8” for “3, 5, 7”, “10.” for “9.”, “13).” for “12).”

C-180 sarcoma = assay: Antitumor activity for C-180 sarcoma, intraperitoneal; format: in vivo; settings: 5 mg/kg intraperitoneal
Method: 4. Antitumor Activity for C-180 Sarcoma
The results of series of experiments in which the stated active ingredient was administered intra-peritoneally in the stated dosage in physiological saline solution are shown in table 5 below.

sarcoma-180 tumor [1] = assay: Sarcoma-180 tumor, MOC.tegafur and tegafur (Example 11, Exp. III); format: in vivo, mice; settings: for Tumor weight: control 3.9
Method: 48 hours after transplantation of the sarcoma-180 tumor, mice of the Balb line received the substance MOC.tegafur by intraabdominal administration in 0.3 ml of a physiological solution. Administration took place on days 3, 5 and 9. The animals were sacrificed on day 21 of the investigation.

AKATON tumor [2] = assay: AKATON tumor, MOC.tegafur and tegafur (Example 11, Exp. I, II); format: in vivo, mice
Method: 48 hours after transplantation of the AKATON tumor (adenocarcinoma of the small bowel), the mice of the Balb line received the substance MOC.tegafur in a dosage of 5 mg/kg of body weight by intraabdominal administration in 0.3 ml of a physiological solution. This took place on days 3, 5, 7 and 9. The animals were sacrificed on day 21 of the investigation.
48 hours after transplantation of the AKATON tumor, the mice of the Balb line received the substance MOC.tegafur by intravenous administration in 0.3 ml of a physiological solution. This took place on days 3, 5, 7 and 9. The animals were sacrificed on day 21 of the investigation.

[3] = in vivo; cited from earlier work
B-16 melanoma tumor = assay: B-16 melanoma tumor, MOC.melphalan and MOC.tegafur (Example 13); format: in vivo, mice; settings: Dose 5 mg/kg (table), day 16
Method: MOC.tegafur was administered in a physiological solution. The animals in the control group likewise received administration of the solutions (without products). On day 16, the mice were sacrificed by decapitation, tumor tissue was removed for histological examination, and the tumor was investigated for antitumor activity (table 23). The tumors were fixed with 10% formalin, which was followed by embedding in paraffin. The section thickness of 5 μm were stained with hematoxylin-eosinome. The microscopy was carried out with a Leica Galen microscope.

sarcoma-180 tumor [4] = assay: Sarcoma-180 tumor tissue changes and mitoses (Example 12); format: in vivo, mice; settings: 5 mg/kg intraabdominal days 3, 5, 9
Method: The sarcoma-180 tumor was transplanted with a weight of 20 to 22 g into sexually mature crossbred mice. 48 hours after the transplantation of the sarcoma-180 tumor, the mice received the substance MOC.tegafur in a dosage of 5 mg/kg of body weight by intraabdominal administration in 0.9% NaCl solution. Administration took place on days 3, 5 and 9.
On day 21, the mice were sacrificed by decapitation and the tumor tissue was removed for histological examination. The antitumor activity of MOC.tegafur was provisionally determined.
In the investigation, the activity of the tumor tissue was determined in animals which received the product MOC.tegafur and in untreated animals in the control. The number of mitoses and the mitosis index was calculated. The average number of mitoses in the investigation group was 2.55% and in the control animal group was 11.2%. The mitosis index in these animal groups was 0.9 and 4.75. On examination under the microscope, an increase in the number of pathological metaphases and anaphases was observed.

[5] = Solubility and stability in air
[6] = tested on: tumor cell cultures (KML); assay: Protein synthesis: inclusion of 3H-amino acids in tumor cell cultures; format: cell-based, mice; settings: 50 μg/ml, incubation 24 hours
Method: The effect of the substances on protein synthesis is determined with the aid of the suppression stage through the inclusion of radioactive precursors of amino acids (totaled mixture of ^3H-amino acids). 1 million cells in a “log phase” were selected for this. The complexes were introduced in a dosage of 50 μg/ml and, in parallel, the amino acids with an activity of 10 mCi/ml were introduced into 10 ml bottles. After incubation for 24 hours, the cells were washed out from the cultivation nutrient medium, and a lysis (disruption) was carried out. The radioactivity of the proteins was determined in a […] (table 25).

AKATON tumor [7] = assay: AKATON tumor transplanted after administration of MOC.tegafur; format: in vivo; settings: 5 mg/kg i.v. 4 days in succession before transplantation
Method: The product was administered intravenously in a physiological solution of 0.3 ml on 4 days in succession (table 20). The AKATON tumor was then transplanted.

[8] = tested on: tumor cell cultures (KML); assay: Suppression of cell proliferation in tumor cell cultures (KML); format: cell-based, mice; settings: incubation 24 hours
Method: The effect of the substances MOC.melphalan and MOC.tegafur of the invention on the proliferative activity, morphology and protein synthesis was investigated on tumor cell cultures (KML). This took place with the mice separated out of the melanoma-16 line. 80 000 cells/ml were distributed in 3 ml of DMEM with the addition of embryonic calf serum, 200 μ/mol of glutamine and antibiotic. After cultivation of the cells at a temperature of 37° C. for 24 hours (logarithmic cell growth phase), the MOC substances were added in the concentration of 10 and 100 μg/ml. After incubation for 24 hours, the number of live cells was determined. In parallel, the fixed specimens of the cells were prepared for morphological analysis.

[9] = 3 mg/kg intraabdominal days 3, 5, 9, day 21
[10] = 5 mg/kg intraabdominal days 3, 5, 9, day 21

N[C@@H](Cc1ccc(N(CCCl)CCCl)cc1)C(=O)O [Melphalan, 4-[bis(2-chloroethyl)amino]-L-phenylalanine, reference compound]
Percentage inhibition (S-180 sarcoma tumor; 5 mg/kg intraabdominal days 2, 4, 6, 8, 10): 38% | Average tumor mass (S-180 sarcoma tumor; 5 mg/kg intraabdominal days 2, 4, 6, 8, 10, control 3.9 ± 0.5): 2.4 ± 1.1 g | Percentage inhibition (S-180 sarcoma tumor; 5 mg/kg intraabdominal days 3, 5, 7, 9): 49% | Average tumor mass (S-180 sarcoma tumor; 5 mg/kg intraabdominal days 3, 5, 7, 9, control 2.8): 1.4 g | % inhibition (C-180 sarcoma): 49% | Mass of the tumor (C-180 sarcoma; control 2.8): 2.4 ± 1.1 g

O=c1[nH]c(=O)n(C2CCCO2)cc1F (stereo not drawn) [Tegafur, 5-fluoro-1-(tetrahydro-2-furyl)uracil, reference compound]
Percent inhibition (sarcoma-180 tumor [1]; 250 mg/kg three times): 20.5% | Tumor weight (sarcoma-180 tumor [1]; 250 mg/kg three times): 3.1 g | Percent inhibition (AKATON tumor [2]; 250 mg/kg intravenous four times): 51% | Tumor weight (AKATON tumor [2]; 250 mg/kg intravenous four times, control 4.3): 2.1 g | Percent inhibition (AKATON tumor [2]; 250 mg/kg, four times, intraabdominal experiment): 54.5% | Tumor weight (AKATON tumor [2]; 250 mg/kg, four times, intraabdominal experiment, control 4.4): 1.95 g | LD50 [3]: 650 mg/kg

Cu(C5H7O2)2.C8H9O3N2F [MOC.tegafur]
MI (mitosis index) (B-16 melanoma tumor; control 4.22): 0.86 | Percent inhibition (B-16 melanoma tumor; intraabdominal days 3, 5, 9): 65.66% | Tumor weight (B-16 melanoma tumor; intraabdominal days 3, 5, 9, control 3.22): 1.13 g | Percent inhibition (sarcoma-180 tumor [1]; [9]): 89% | Tumor weight (sarcoma-180 tumor [1]; [9]): 0.43 g | Percent inhibition (sarcoma-180 tumor [1]; [10]): 95% | Tumor weight (sarcoma-180 tumor [1]; [10]): 0.195 g | mitosis index (sarcoma-180 tumor [4]; control 4.75): 0.9 | average number of mitoses (sarcoma-180 tumor [4]; control 11.2%): 2.55% | percent inhibition of tumor proliferation (sarcoma-180 tumor [4]; day 21, provisionally determined): 96.4% | Percent inhibition (AKATON tumor [2]; 5 mg/kg intraabdominal days 3, 5, 7, 9, day 21): 86% | Tumor weight (AKATON tumor [2]; 5 mg/kg intraabdominal days 3, 5, 7, 9, day 21, control 4.4): 0.61 g | Percent inhibition (AKATON tumor [2]; 5 mg/kg intravenous days 3, 5, 7, 9, day 21): 80% | Tumor weight (AKATON tumor [2]; 5 mg/kg intravenous days 3, 5, 7, 9, day 21, control 4.3): 0.86 g | solubility ([5]; in ether and chloroform): insoluble | solubility ([5]; in water, physiological solution, methanol, ethanol, DMSO and Twin-80): readily soluble | Suppression of amino acid inclusion [6]: 77% | Percent inhibition of tumor volume (AKATON tumor [7]): 61.3* % | Percent inhibition of tumor weight (AKATON tumor [7]): 50* % | Tumor weight (AKATON tumor [7]; control 4.46): 2.20 g | Size of the tumor (AKATON tumor [7]; control 7.90): 3.06 cm^3 | Suppression of growth cells ([8]; 10 μg/ml): 32% | Suppression of growth cells ([8]; 100 μg/ml): 100%
